Experimental data published in ChEMBL document CHEMBL3232835, “Discovery of trifluoromethyl(pyrimidin-2-yl)azetidine-2-carboxamides as potent, orally bioavailable TGR5 (GPBAR1) agonists: structure-activity relationships, lead optimization, and chronic in vivo efficacy” (J Med Chem, 2014).
Blank lines part the entries; values can stand above or below the compound they belong to.

What was measured:
[1] = AUC in mouse plasma at 20 mg/kg up to 5 hrs; format: ADME, organism-based; set-up: time < 5 hr, dose 20 mg/kg
[2] = in vitro; details: human, Caco-2
[3] = in vitro; details: human, Caco-2; remark: listed apart in the source
[4] = Oral bioavailability in mouse at 20 mg/kg; format: ADME, organism-based; details: in vivo
[5] = Cmax in mouse at 5 mg/kg, iv; format: ADME, organism-based; set-up: dose 5 mg/kg, route intravenous; details: in vivo
[6] = Cmax in mouse at 20 mg/kg, po; format: ADME, organism-based; set-up: dose 20 mg/kg, route oral; details: in vivo
[7] = AUC in mouse at 20 mg/kg, po; format: ADME, organism-based; set-up: dose 20 mg/kg, route oral; details: plasma
[8] = Volume of distribution at steady state in mouse at 5 mg/kg, iv; format: ADME, organism-based; set-up: dose 5 mg/kg, route intravenous; details: in vivo, read-out: Vdss
[9] = AUC in mouse at 5 mg/kg, iv; format: ADME, organism-based; set-up: dose 5 mg/kg, route intravenous; details: plasma
[10] = Lipophilicity, log D of the compound at pH 6.8; format: physicochemical; details: buffer
[11] = Cmax in ob/ob mouse at 30 mg/kg, po qd measured on day 1; format: ADME, organism-based; set-up: dose 30 mg/kg, route oral; details: in vivo
[12] = Cmax in ob/ob mouse at 30 mg/kg, po qd measured on day 37; format: ADME, organism-based; set-up: dose 30 mg/kg, route oral; details: in vivo
[13] = AUC in ob/ob mouse at 30 mg/kg, po qd measured on day 1; format: ADME, organism-based; set-up: dose 30 mg/kg, route oral; details: plasma
[14] = AUC in ob/ob mouse at 30 mg/kg, po qd measured on day 37; format: ADME, organism-based; set-up: dose 30 mg/kg, route oral; details: plasma

AUC at 5 h [1]: 7.53 µM·h
SMILES: N#Cc1ccc(CCNC(=O)[C@@H]2CCN2c2cc(N3CCC(Oc4ccc(C(=O)O)cc4)CC3)nc(C(F)(F)F)n2)cc1

Papp A→B [2]: 1.02 ×10⁻⁶ cm/s | AUC at 5 h [1]: 1.05 µM·h | Papp B→A [3]: 13.5 ×10⁻⁶ cm/s
SMILES: CC1(C(=O)O)CCN(c2cc(N3CCC[C@@H](C(=O)NCCc4ccc(C#N)cc4)C3)nc(C(F)(F)F)n2)CC1

Papp A→B [2]: 2.7 ×10⁻⁶ cm/s | AUC at 5 h [1]: 3.74 µM·h | Papp B→A [3]: 12.9 ×10⁻⁶ cm/s
SMILES: COc1cc(C2CCN(c3cc(N4CC[C@H]4C(=O)NCCc4ccc(C#N)cc4)nc(C(F)(F)F)n3)CC2)ccc1C(=O)O

bioavailability [4]: 24% | Cmax [5]: 4.52 µM | Cmax [6]: 1.07 µM | AUC [7]: 2.54 µM·h | Vd [8]: 1.6 L/kg | AUC [9]: 2.67 µM·h
SMILES: CN1CCN(c2cc(N3CCC[C@@H](C(=O)NCCc4ccc(C#N)cc4)C3)nc(C(F)(F)F)n2)CC1

Papp A→B [2]: 1.36 ×10⁻⁶ cm/s | AUC at 5 h [1]: 0.108 µM·h | Papp B→A [3]: 13 ×10⁻⁶ cm/s
SMILES: N#Cc1ccc(CCNC(=O)[C@@H]2CCCN(c3cc(N4CCC(C(=O)O)CC4)nc(C(F)(F)F)n3)C2)cc1

AUC at 5 h [1]: 14.2 µM·h
SMILES: N#Cc1ccc(CCNC(=O)[C@@H]2CCN2c2cc(N3CCC(Oc4ccc(CC(=O)O)cc4)CC3)nc(C(F)(F)F)n2)cc1

AUC at 5 h [1]: 13.9 µM·h
SMILES: N#Cc1ccc(CCNC(=O)[C@@H]2CCN2c2cc(-c3ccc(-c4ccc(C(=O)O)cc4)cc3)nc(C(F)(F)F)n2)cc1

Papp A→B [2]: 2.12 ×10⁻⁶ cm/s | AUC at 5 h [1]: 5.02 µM·h | Papp B→A [3]: 6.4 ×10⁻⁶ cm/s
SMILES: N#Cc1ccc(CCNC(=O)[C@@H]2CCCN(c3cc(N4CCC(Oc5ccc(CC(=O)O)cc5)CC4)nc(C(F)(F)F)n3)C2)cc1

bioavailability [4]: 96.5% | logD [10]: 2.5 | Cmax [5]: 12 µM | Cmax [6]: 9.75 µM | Cmax [11]: 4.77 µM | AUC [7]: 53.8 µM·h | Cmax [12]: 5.17 µM | Vd [8]: 1.31 L/kg | AUC [13]: 45.5 µM·h | AUC [14]: 37.5 µM·h | AUC at 5 h [1]: 11.4 µM·h | AUC [9]: 13.9 µM·h
SMILES: N#Cc1ccc(CCNC(=O)[C@@H]2CCN2c2cc(-c3ccc([C@H]4CC[C@H](C(=O)O)CC4)cc3)nc(C(F)(F)F)n2)cc1
